Measured values: patent US9115139B2, “Pyrazinooxazepine derivatives” (TAKEDA PHARMACEUTICAL COMPANY LIMITED, priority 2009, dated 2015)

The molecules below were run against serotonin 5-HT2C receptor (VSV type isoform, stably expressing CHO cell) (Homo sapiens, UniProt P28335, I156V/I160V/N158S).
Format: cell-based

Sequence of serotonin 5-HT2C receptor (VSV type isoform, stably expressing CHO cell) (P28335 33-458 I156V/N158S/I160V limits assumed): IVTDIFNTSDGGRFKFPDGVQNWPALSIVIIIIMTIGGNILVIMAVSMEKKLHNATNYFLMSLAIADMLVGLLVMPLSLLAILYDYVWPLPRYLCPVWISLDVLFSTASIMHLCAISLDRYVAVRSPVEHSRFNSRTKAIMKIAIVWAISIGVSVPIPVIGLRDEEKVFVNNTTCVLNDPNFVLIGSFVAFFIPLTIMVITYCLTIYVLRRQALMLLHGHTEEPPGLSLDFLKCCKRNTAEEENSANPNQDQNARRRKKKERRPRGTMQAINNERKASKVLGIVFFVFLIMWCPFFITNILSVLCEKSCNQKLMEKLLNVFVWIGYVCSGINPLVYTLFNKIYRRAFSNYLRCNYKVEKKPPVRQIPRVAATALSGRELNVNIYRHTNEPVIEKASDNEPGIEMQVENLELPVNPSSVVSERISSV

| SMILES | ratio (%) relative to maximum response by 5-HT (1 μM) [%] |
| --- | --- |
| CC(C)Oc1cnc2c(n1)OCCNC2.Cl [Example 2, 3-(1-methylethoxy)-6,7,8,9-tetrahydropyrazino[2,3-f][1,4]oxazepine hydrochloride] | 93 |
| C[C@@H]1COCCN1c1cnc2c(n1)OCCNC2.Cl [Example 5, 3-[(3R)-3-methylmorpholin-4-yl]-6,7,8,9-tetrahydropyrazino[2,3-f][1,4]oxazepine hydrochloride] | 95 |
| CC(C)N(C)c1cnc2c(n1)OCCNC2.Cl [Example 8, N-methyl-N-(1-methylethyl)-6,7,8,9-tetrahydropyrazino[2,3-f][1,4]oxazepin-3-amine hydrochloride] | 95 |
| Cl.c1nc2c(nc1C1CC1)OCCNC2 [Example 10, 3-cyclopropyl-6,7,8,9-tetrahydropyrazino[2,3-f][1,4]oxazepine hydrochloride] | 89 |
